Values of other authors as cited in article PMC11944884, “Bioactive Secondary Metabolites of Two Chinese Edible Boletes, Phlebopus portentosus and Butyriboletus roseoflavus” (Molecules, 2025).

System: head domain of HA
Conditions: molecular docking, ref [56]; cited from earlier work

SMILES: CC[C@H](CC[C@@H](C)[C@H]1CC[C@H]2[C@@H]3CC=C4C[C@@H](O)CC[C@]4(C)[C@H]3CC[C@]12C)C(C)C [β-sitosterol]
- binding affinity to the head domain of HA: highest binding affinity
